{
  "source": "patent US10925960B2",
  "about": "“Antigen delivery system” (SRI INTERNATIONAL, priority 2014, dated 2021)",
  "data": [
    {"tested_on": "LLC1 cells", "assay": "Coculture of liposome-treated LLC1 cells with lymphocytes from H250-vaccinated C57BL/6 mice, IFNγ secretion", "format": "cell-based, mouse", "conditions": "LLC1 cells treated with H1299.3-targeted liposomes containing H250 in presence of inhibitor, fixed, cocultured with lymphocytes", "description": "We then generated murine CD8+ cells with TCR that recognizes MHC class I loaded H250 (1) by vaccinating C57BL/6 mice with an extended version of H250 and subsequently harvesting lymphocytes as a source of CD8+ T cells. LLC1 cells were treated with control or H1299.3-targeted liposomes containing H250, washed, and then incubated.\nAfter allowing trafficking of the peptides to occur, the LLC1 cells were fixed and cocultured with lymphocytes as previously described.", "values": [
      {"smiles": "CCN(CC)CCCC(C)Nc1ccnc2cc(Cl)ccc12", "note": "(stereo not drawn) [chloroquine]", "Effect of inhibitor on IFNγ secretion / H250 presentation": "significant reduction in IFNγ secretion"},
      {"smiles": "C[C@@H]1[C@H](O)[C@@H](C)/C=C/C=C/CC/C=C/C=C/C=C/C=C/C(O[C@H]2O[C@H](C)[C@@H](O)[C@H](N)[C@@H]2O)CC2O[C@](O)(CC(O)C(O)CCC(O)CC(O)CC(O)CC(=O)O[C@H]1C)CC(O)C2C(=O)O", "note": "(stereo partly drawn) [Nystatin]", "Effect of inhibitor on IFNγ secretion / H250 presentation": "no effect"},
      {"smiles": "CN(C)CCCN1c2ccccc2Sc2ccc(Cl)cc21", "note": "[Chlorpromazine]", "Effect of inhibitor on IFNγ secretion / H250 presentation": "reduced presentation"}
    ]}
  ]
}
